≈ marks a conversion by molar mass, not a printed value.
How the values were obtained:
[1] = tested on: U2OS stably expressing fluorescent DAG biosensor; experiment: DAG biosensor fluorescence redistribution (internalization) assay
Experimental: Cellular distribution of DAG biosensor stimulated cells. […] DAG biosensor activity was determined measuring the generation of the vesicle using image analysis algorithms.
As with the previous examples, in order to assess whether the activation of the above mentioned polypeptide induces intracellular fluorescence redistribution in living cells, peptide turboGFP was cloned as the fluorescent peptide and the cellular localization of the biosensor was analysed upon diacylglycerol induced activation. In this sense, U2O2 cell line was stably transfected with the plasmid construction that contains the above mentioned biosensor's coding sequence. […] As with the previous examples, activity was calculated as an increment of granularity by treating these cells with increasing dosages of PMA.

[2] = tested on: HEK293 and U2O2 cells stably transfected with calcium biosensor; experiment: Calcium biosensor cellular localization upon calcium induced activation; assay type: cell-based; details: 10 ng/ml of PMA and 1 uM of ionomycin applied together
Excerpt: After transfection, both cell lines presented a membrane distribution of the fluorescence.

[3] = target: human Tachykinin receptor 1 (Neurokinin 1 receptor) (Homo sapiens, UniProt P25103); details: 10 uM, 6 hours, U2OS expressing human Neurokinin receptor 1 and calcium biosensor
human Tachykinin receptor 1 (Neurokinin 1 receptor), sequence (P25103 whole entry): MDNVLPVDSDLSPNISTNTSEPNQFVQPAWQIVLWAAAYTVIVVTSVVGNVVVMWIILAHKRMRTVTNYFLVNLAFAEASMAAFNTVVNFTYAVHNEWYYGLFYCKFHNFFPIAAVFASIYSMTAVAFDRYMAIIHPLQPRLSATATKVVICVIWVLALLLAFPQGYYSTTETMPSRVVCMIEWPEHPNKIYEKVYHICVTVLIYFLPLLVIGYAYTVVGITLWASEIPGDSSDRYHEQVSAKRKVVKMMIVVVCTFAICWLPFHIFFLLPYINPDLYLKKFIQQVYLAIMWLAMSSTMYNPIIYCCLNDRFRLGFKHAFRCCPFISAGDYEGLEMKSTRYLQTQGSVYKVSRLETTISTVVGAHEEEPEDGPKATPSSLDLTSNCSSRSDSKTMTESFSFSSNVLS
Experimental: Secondly, in order to determine whether calcium induces a significant conformational change within a physiological dynamic range, the U2O2 biosensor stable cell line was stably transfected with the human Tachykinin receptor 1.
The double stable cell line was seeded at 20,000 cells per well on 96-mm optical plates, and cultured in 200 ul of DMEM F12 supplemented with 10% fetal bovine serum. For fluorescent biosensor redistribution, cells were stimulated with different concentrations of the agonist Substancia P during 6 hours. After treatment, the nucleus was stained with DAPI and biosensor fluorescence redistribution was detected by fluorescence using image analysis algorithms. […] The activity was calculated as an increment of the granularity of these cells. Cells were treated with 11 log dilution series (n=5).

CC(C)NCC(O)c1ccc(O)c(O)c1 (centres unmarked) [Isoproterenol]
EC50 ([1]; Homo sapiens, U2OS, 4 h, read-out: Ec50, biosensor redistribution (increment of granularity)): 0.000289 ng/mL (≈ 0.00137 nM)

CCCCCCCCCCCCCC(=O)O[C@@H]1[C@@H](C)[C@@]2(O)[C@@H](C=C(CO)C[C@]3(O)C(=O)C(C)=C[C@@H]23)[C@@H]2C(C)(C)[C@]12OC(C)=O [PMA]
Membrane distribution of calcium biosensor after raising intracellular calcium [2]: substantial decrease in membrane distribution
Cellular distribution of fluorescent DAG biosensor after treatment ([1]; 25 ng/ml, 4 hours, U2OS expressing DAG biosensor): internalized in vesicles in the citosol

C[C@H](CCC(=O)O)C[C@H](C)C[C@H](C)C(=O)/C=C(\O)[C@H](C)C[C@H](C)C/C=C/[C@@H](C)[C@@H](O)[C@@H](C)[C@@H](O)C[C@@H]1CC[C@@](C)([C@H]2CC[C@@](C)([C@@H](C)O)O2)O1 [ionomycin]
Membrane distribution of calcium biosensor after raising intracellular calcium [2]: substantial decrease in membrane distribution

Substance P
Cellular distribution of fluorescent calcium biosensor after treatment [3]: internalized in vesicles in the citosol

Source: patent publication US10883981B2, “Fluorescent fusion polypeptide, encoding nucleic acid, and cell comprising said polypeptide” (priority 2012, dated 2021)
